“And” between values parts separate entries of the source, which are not always exact repeats. Equal values may be shown once. Inconclusive results and toxic doses are left out.
Tested on: CD2F1 mice, L1210 leukemia ip, survival T/C
Test: NCI In Vivo Anticancer Drug Screen. Data for tumor model L1210 Leukemia (intraperitoneal) in CD2F1 (CDF1) mice
Conditions: higher = longer survival
Outline: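 Transplantable tumor in mice; compound-treated vs vehicle-treated groups. Read-out = treated/control ratio of the measured endpoint.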

[1] = endpoint: mean survival time, dose: 100.0 mg/kg/injection, schedule: Q01DX009 (ip), vehicle: saline with Tween-80
[2] = endpoint: mean survival time, dose: 200.0 mg/kg/injection, schedule: Q01DX009 (ip), vehicle: saline with Tween-80
[3] = endpoint: mean survival time, dose: 400.0 mg/kg/injection, schedule: Q01DX009 (ip), vehicle: saline with Tween-80
[4] = endpoint: mean survival time, dose: 100.0 mg/kg/injection, schedule: Q01DX001 (ip), vehicle: saline with Tween-80
[5] = endpoint: mean survival time, dose: 200.0 mg/kg/injection, schedule: Q01DX001 (ip), vehicle: saline with Tween-80

CC(=O)c1c(C(C)C)cc(C(C)C)cc1C(C)C
T/C [1]: 98 % of control | T/C [2]: 101 % of control | T/C [3]: 101 % of control

N=C(N)c1ccc(NC(=O)c2ccc(C(=O)Nc3ccc(C(=N)N)cc3)c(N)c2)cc1
T/C (endpoint: median survival time, dose: 12.5 mg/kg/injection, schedule: Q01DX009 (ip), vehicle: saline with Tween-80): 101 % of control and 110 % of control | T/C (endpoint: median survival time, dose: 25.0 mg/kg/injection, schedule: Q01DX009 (ip), vehicle: saline with Tween-80): 102 % of control and 112 % of control | T/C (endpoint: median survival time, dose: 50.0 mg/kg/injection, schedule: Q01DX009 (ip), vehicle: saline with Tween-80): 119 % of control and 103 % of control | T/C (endpoint: median survival time, dose: 100.0 mg/kg/injection, schedule: Q01DX009 (ip), vehicle: saline with Tween-80): 121 % of control and 96 % of control and 112 % of control | T/C (endpoint: median survival time, dose: 200.0 mg/kg/injection, schedule: Q01DX009 (ip), vehicle: saline with Tween-80): 107 % of control

C[CH2][Pb]([CH2]C)([CH2]C)[O]C(=O)c1ccc2ccccc2n1
T/C (endpoint: mean survival time, dose: 0.4 mg/kg/injection, schedule: Q01DX009 (ip), vehicle: saline): 103 % of control | T/C (endpoint: mean survival time, dose: 0.8 mg/kg/injection, schedule: Q01DX009 (ip), vehicle: saline): 103 % of control | T/C (endpoint: mean survival time, dose: 1.6 mg/kg/injection, schedule: Q01DX009 (ip), vehicle: saline): 101 % of control

Cc1cc(F)ccc1NC(=O)OC(C)C
T/C (endpoint: mean survival time, dose: 100.0 mg/kg/injection, schedule: Q04DX003 (ip), vehicle: saline with Tween-80): 101 % of control | T/C (endpoint: mean survival time, dose: 200.0 mg/kg/injection, schedule: Q04DX003 (ip), vehicle: saline with Tween-80): 92 % of control | T/C (endpoint: mean survival time, dose: 400.0 mg/kg/injection, schedule: Q04DX003 (ip), vehicle: saline with Tween-80): 104 % of control

C(=N\Nc1nc2ccccc2s1)/c1ccnc2ccccc12
T/C (endpoint: mean survival time, dose: 100.0 mg/kg/injection, schedule: Q04DX003 (ip), vehicle: Klucel (hydroxypropylcellulose) (HPC)): 94 % of control | T/C (endpoint: mean survival time, dose: 200.0 mg/kg/injection, schedule: Q04DX003 (ip), vehicle: Klucel (hydroxypropylcellulose) (HPC)): 92 % of control | T/C (endpoint: mean survival time, dose: 400.0 mg/kg/injection, schedule: Q04DX003 (ip), vehicle: Klucel (hydroxypropylcellulose) (HPC)): 94 % of control

CN(C)N=Nc1ccc(C(N)=O)cc1C(N)=O
T/C (endpoint: mean survival time, dose: 18.75 mg/kg/injection, schedule: Q01DX009 (ip), vehicle: Klucel (hydroxypropylcellulose) (HPC)): 115 % of control and 104 % of control | T/C (endpoint: mean survival time, dose: 37.5 mg/kg/injection, schedule: Q01DX009 (ip), vehicle: Klucel (hydroxypropylcellulose) (HPC)): 122 % of control and 112 % of control | T/C (endpoint: mean survival time, dose: 75.0 mg/kg/injection, schedule: Q01DX009 (ip), vehicle: Klucel (hydroxypropylcellulose) (HPC)): 123 % of control and 124 % of control

COc1ccc(-c2cc3ccccc3c(=O)o2)cc1
T/C [1]: 98 % of control | T/C [2]: 98 % of control | T/C [3]: 91 % of control

O=C(NO)c1ccc(O)c(O)c1O
T/C (endpoint: mean survival time, dose: 25.0 mg/kg/injection, schedule: Q01DX009 (ip), vehicle: distilled water + Tween-80): 110 % of control | T/C (endpoint: mean survival time, dose: 50.0 mg/kg/injection, schedule: Q01DX009 (ip), vehicle: distilled water + Tween-80): 108 % of control | T/C (endpoint: mean survival time, dose: 100.0 mg/kg/injection, schedule: Q01DX009 (ip), vehicle: distilled water + Tween-80): 116 % of control

Cc1ccc(NC(=O)Nc2cccc(-n3cnc4c(=O)[nH]c(N)nc43)c2)cc1S(=O)(=O)F
T/C [4]: 86 % of control | T/C [5]: 88 % of control | T/C (endpoint: mean survival time, dose: 400.0 mg/kg/injection, schedule: Q01DX001 (ip), vehicle: saline with Tween-80): 89 % of control

Nc1nc(-c2cccc([N+](=O)[O-])c2)c(N=Nc2ccc([N+](=O)[O-])cc2)s1
T/C [4]: 93 % of control | T/C [5]: 95 % of control

CCNc1ncnc2c1c(C(N)=S)cn2C1OC(CO)C(O)C1O (configuration not stated)
T/C (endpoint: mean survival time, dose: 6.25 mg/kg/injection, schedule: Q01DX009 (ip), vehicle: saline): 116 % of control | T/C (endpoint: mean survival time, dose: 12.5 mg/kg/injection, schedule: Q01DX009 (ip), vehicle: saline): 116 % of control | T/C (endpoint: mean survival time, dose: 25.0 mg/kg/injection, schedule: Q01DX009 (ip), vehicle: saline): 150 % of control

NC1=NCN(c2ccc(OCCOc3ccc(NC(=O)CBr)cc3)cc2)C(N)=N1
T/C (endpoint: mean survival time, dose: 37.5 mg/kg/injection, schedule: Q04DX002 (ip), vehicle: saline with Tween-80): 96 % of control | T/C (endpoint: mean survival time, dose: 75.0 mg/kg/injection, schedule: Q04DX002 (ip), vehicle: saline with Tween-80): 96 % of control | T/C (endpoint: mean survival time, dose: 150.0 mg/kg/injection, schedule: Q04DX002 (ip), vehicle: saline with Tween-80): 90 % of control

From PubChem BioAssay AID256 (DTP/NCI, 2004)
